Read-outs that look alike come from different tables or passages of the source.
Legend:
amylase = experiment: Amylase activity retention in detergent use solution (4000 ppm, 5 GPG water; ethylidene substrate EPS, HEPES buffer pH 8.0); format: biochemical; conditions: base formula
Method: (§1) The enzyme activities in the detergents with different phosphonate levels were tested at 4000 ppm in 5 grains per gallon (GPG) water at 120° F. with various time points collected up to 4 hours, after a use solution was generated from the detergent composition. During the tests, the samples at different time points were collected and immediately frozen in an acetone/dry ice bath and stored in −80° C. before the activity of the enzyme was evaluated. For the use of such an assay, t=0 min was the reference point for 100% enzyme activity.
(§2) Assays of enzyme activity in formulations (% retention) were conducted to simulate a presoak condition in a beaker using the chemistry, temperature, and pH conditions relevant to manual warewash or presoak applications. Enzyme activity is an indicator of the stability of the enzyme in the detergent, specifically in an aqueous use solution within a sump (which is under conditions of high pH, temperature and dilution).
Enzyme activity under presoak or manual warewash conditions was traced quantitatively using a standard protease assay. Samples were prepared under bench top conditions, whereby the use solution from a detergent composition or detergent was obtained and maintained at a presoak or manual warewash temperature in a stirring water bath. After the time course for assessing enzyme stability is initiated, aliquots were taken at various time points and flash-frozen. A time=0 sample was prepared for each series by dissolving the detergent formulation at room temperature, mixing thoroughly, and flash freezing. Samples were thawed and diluted as necessary in an assay buffer usually for use in the protease assay. A glycine buffer at pH 9.0 is used here. The assay monitored the direct reaction of the protease on a small, commercially available peptidyl substrate, with liberation of the product providing correlation to the active enzyme content. The product was detected using a plate reader with an appreciable dynamic range (upper absorbance limit of the instrument >3.5). Enzyme activity levels were assessed relative to a calibration curve with average values for replicate tests used to map protease stability under presoak or manual warewash use conditions. Enzyme retention at each time point was calculated as the % enzyme activity relative to the time=0 sample.
The analysis by lipase and amylase assay was conducted similarly, except with a different substrate and buffers. For lipase activity, the substrate is p-nitrophenyl valerate, and for amylase, the substrate is an ethylidene substrate (EPS). The buffer used in lipase assay is TRIS (Tris(hydroxymethyl)aminomethane) buffer at pH 8.0, and in amylase assay HEPES (4-(2-hydroxyethyl)-1-piperazineethanesulfonic acid) buffer at pH 8.0.

[1] = tested on: enzyme (protease, amylase, lipase); experiment: Overall effects of phosphonates on enzyme activity (Table 3); format: biochemical
Method: as §1, §2
The relative enzyme activities in a use solution of the tested detergent compositions containing a different phosphonate at different concentrations over a period time are listed in Table 4A-Table 4E, Table 5A-Table 5E, and Table 6A-Table 6F.

[2] = phosphonate 0.3 wt-%, use solution at 120° F., time 0 min
[3] = phosphonate 0.3 wt-%, use solution at 120° F., time 5 min
[4] = phosphonate 0.3 wt-%, use solution at 120° F., time 10 min
[5] = phosphonate 0.3 wt-%, use solution at 120° F., time 20 min
[6] = phosphonate 0.3 wt-%, use solution at 120° F., time 40 min
[7] = phosphonate 0.3 wt-%, use solution at 120° F., time 60 min
[8] = phosphonate 0.3 wt-%, use solution at 120° F., time 90 min
[9] = phosphonate 0.3 wt-%, use solution at 120° F., time 120 min
[10] = phosphonate 0.3 wt-%, use solution at 120° F., time 150 min
[11] = phosphonate 0.3 wt-%, use solution at 120° F., time 180 min
[12] = phosphonate 0.3 wt-%, use solution at 120° F., time 210 min
[13] = phosphonate 0.3 wt-%, use solution at 120° F., time 240 min
[14] = phosphonate 0.6 wt-%, use solution at 120º F., time 0 min
[15] = phosphonate 0.6 wt-%, use solution at 120º F., time 5 min
[16] = phosphonate 0.6 wt-%, use solution at 120º F., time 10 min
[17] = phosphonate 0.6 wt-%, use solution at 120º F., time 20 min
[18] = phosphonate 0.6 wt-%, use solution at 120º F., time 40 min
[19] = phosphonate 0.6 wt-%, use solution at 120º F., time 60 min
[20] = phosphonate 0.6 wt-%, use solution at 120º F., time 90 min
[21] = phosphonate 0.6 wt-%, use solution at 120º F., time 120 min
[22] = phosphonate 0.6 wt-%, use solution at 120º F., time 150 min
[23] = phosphonate 0.6 wt-%, use solution at 120º F., time 180 min
[24] = phosphonate 0.6 wt-%, use solution at 120º F., time 210 min
[25] = phosphonate 0.6 wt-%, use solution at 120º F., time 240 min
[26] = phosphonate at 0.1% elemental phosphorus level, use solution at 120º F., time 0 min
[27] = phosphonate at 0.1% elemental phosphorus level, use solution at 120º F., time 5 min
[28] = phosphonate at 0.1% elemental phosphorus level, use solution at 120º F., time 10 min
[29] = phosphonate at 0.1% elemental phosphorus level, use solution at 120º F., time 20 min
[30] = phosphonate at 0.1% elemental phosphorus level, use solution at 120º F., time 40 min
[31] = phosphonate at 0.1% elemental phosphorus level, use solution at 120º F., time 60 min
[32] = phosphonate at 0.1% elemental phosphorus level, use solution at 120º F., time 90 min
[33] = phosphonate at 0.1% elemental phosphorus level, use solution at 120º F., time 120 min
[34] = phosphonate at 0.1% elemental phosphorus level, use solution at 120º F., time 150 min
[35] = phosphonate at 0.1% elemental phosphorus level, use solution at 120º F., time 180 min
[36] = phosphonate at 0.1% elemental phosphorus level, use solution at 120º F., time 210 min
[37] = phosphonate at 0.1% elemental phosphorus level, use solution at 120º F., time 240 min

Row | Substance | Relative Amylase Enzyme Activity (amylase; [2]) [%] | Relative Amylase Enzyme Activity (amylase; [3]) [%] | Relative Amylase Enzyme Activity (amylase; [4]) [%] | Relative Amylase Enzyme Activity (amylase; [5]) [%] | Relative Amylase Enzyme Activity (amylase; [6]) [%] | Relative Amylase Enzyme Activity (amylase; [7]) [%] | Relative Amylase Enzyme Activity (amylase; [8]) [%] | Relative Amylase Enzyme Activity (amylase; [9]) [%] | Relative Amylase Enzyme Activity (amylase; [10]) [%] | Relative Amylase Enzyme Activity (amylase; [11]) [%] | Relative Amylase Enzyme Activity (amylase; [12]) [%] | Relative Amylase Enzyme Activity (amylase; [13]) [%] | Relative Amylase Enzyme Activity (amylase; [14]) [%] | Relative Amylase Enzyme Activity (amylase; [15]) [%] | Relative Amylase Enzyme Activity (amylase; [16]) [%] | Relative Amylase Enzyme Activity (amylase; [17]) [%] | Relative Amylase Enzyme Activity (amylase; [18]) [%] | Relative Amylase Enzyme Activity (amylase; [19]) [%] | Relative Amylase Enzyme Activity (amylase; [20]) [%] | Relative Amylase Enzyme Activity (amylase; [21]) [%] | also measured
1 | Monoethanolamine phosphonate [MEAP] | 100.00 | 100.65 | 102.68 | 102.07 | 91.36 | 93.57 | 94.85 | 102.84 | 93.01 | 96.46 | 100.65 | 103.40 | 100.00 | 95.91 | 99.98 | 90.83 | 91.75 | 97.99 | 99.08 | 97.36 | Relative Amylase Enzyme Activity (amylase; [22]): 101.28%; Relative Amylase Enzyme Activity (amylase; [23]): 94.70%; Relative Amylase Enzyme Activity (amylase; [24]): 99.20%; Relative Amylase Enzyme Activity (amylase; [25]): 99.15%; Relative Amylase Enzyme Activity (amylase; [26]): 100.00%; Relative Amylase Enzyme Activity (amylase; [27]): 95.47%; Relative Amylase Enzyme Activity (amylase; [28]): 112.93%; Relative Amylase Enzyme Activity (amylase; [29]): 117.67%; Relative Amylase Enzyme Activity (amylase; [30]): 122.41%; Relative Amylase Enzyme Activity (amylase; [31]): 125.44%; Relative Amylase Enzyme Activity (amylase; [32]): 127.99%; Relative Amylase Enzyme Activity (amylase; [33]): 123.91%; Relative Amylase Enzyme Activity (amylase; [34]): 120.88%; Relative Amylase Enzyme Activity (amylase; [35]): 113.29%; Relative Amylase Enzyme Activity (amylase; [36]): 112.78%; Relative Amylase Enzyme Activity (amylase; [37]): 118.72%; Stability (effects on enzyme activity) [1]: Yes
2 | Polyamino Polyether Methylene Phosphonic Acid [PAPEMP] | 45.92 | 100.00 | 101.33 | 101.28 | 89.91 | 93.07 | 89.58 | 89.74 | 92.85 | 87.45 | 93.95 | 108.16 | 100.00 | 91.71 | 99.05 | 94.55 | 97.22 | 97.94 | 101.28 | 99.25 | Relative Amylase Enzyme Activity (amylase; [22]): 105.34%; Relative Amylase Enzyme Activity (amylase; [23]): 98.44%; Relative Amylase Enzyme Activity (amylase; [24]): 101.64%; Relative Amylase Enzyme Activity (amylase; [25]): 96.02%; Relative Amylase Enzyme Activity (amylase; [26]): 100.00%; Relative Amylase Enzyme Activity (amylase; [27]): 85.10%; Relative Amylase Enzyme Activity (amylase; [28]): 95.50%; Relative Amylase Enzyme Activity (amylase; [29]): 96.02%; Relative Amylase Enzyme Activity (amylase; [30]): 91.46%; Relative Amylase Enzyme Activity (amylase; [31]): 97.42%; Relative Amylase Enzyme Activity (amylase; [32]): 89.60%; Relative Amylase Enzyme Activity (amylase; [33]): 99.26%; Relative Amylase Enzyme Activity (amylase; [34]): 101.88%; Relative Amylase Enzyme Activity (amylase; [35]): 91.85%; Relative Amylase Enzyme Activity (amylase; [36]): 99.00%; Relative Amylase Enzyme Activity (amylase; [37]): 96.59%; Stability (effects on enzyme activity) ([1]; overall effect of the phosphonate on enzyme activity in the detergent use solution): Yes
